The text below walks through data of patent publication US20070027150A1 (priority 2005, published 2007).

By IC50 is commonly meant the point on the concentration scale where inhibition reaches its midpoint.

One test has as its target His-tagged N-terminal ATP binding domain (amino acid residues 9-236) of HSP90α (Homo sapiens, UniProt P07900). Description: HSP90 inhibitor binding potency: TRF competition binding assay. As to conditions: Table I; read-out: Hsp90 IC50 Range. The method, then:
HSP90 Inhibitor Binding Potency: TRF Binding Assay
In this example, the binding potency of HSP90 inhibitors as measured by a TRF binding assay is described.
TRF competition binding assays were performed to determine the binding potency (IC50 values) of HSP90 inhibitors. Purified His-tagged N-terminal ATP binding domain (amino acid residues 9-236) of HSP90α (HSP90α GeneID: 3320; mRNA Sequence NM_005348) was incubated for two hours at room temperature in binding buffer (50 mM HEPES, 6 mM MgCl2, 20 mM KCl and 0.1% BSA) with biotinylated radicicol and progressively higher concentrations of the competing compounds. A fraction of the mixture was transferred to capture plates (coated with streptavidin) and incubated for one hour at room temperature. After washing with DELFIA wash buffer, europium-labeled anti-his antibody was added and incubated for two hours at room temperature, followed by washing with DELFIA buffer. DELFIA enhancement solution was then added. After gentle shaking for 10 minutes, the plates were read in VICTOR for europium counts.
In the case of `Cc1nc(N)nc2c1C(=O)CC(c1nccn1Cc1ccccc1)C2` (stereo not drawn) [Compound 9, 2-amino-7-(1-benzyl-1H-imidazol-2-yl)-4-methyl-7,8-dihydro-6H-quinazolin-5-one], the IC50 is under 1000 nM.

`COc1cccc(-c2ccccc2C2CC(=O)c3c(C)nc(N)nc3C2)n1` (stereo not drawn) [Compound 124, 2-amino-7-[2-(6-methoxypyridin-2-yl)phenyl]-4-methyl-7,8-dihydroquinazolin-5(6H)-one]: the 50% inhibitory concentration (IC50) is under 1000 nM.

Consider `Cc1nc(N)nc2c1C(=O)CC(c1ccccc1Oc1ccccc1)C2` (stereo not drawn) [Compound 133, 2-amino-4-methyl-7-(2-phenoxyphenyl)-7,8-dihydroquinazolin-5(6H)-one], for which the IC50 is under 1000 nM.

`Cc1nc(N)nc2c1C(=O)CC(c1ccccc1-c1cccnn1)C2` (stereo not drawn) [Compound 115, 2-amino-4-methyl-7-(2-pyridazin-3-ylphenyl)-7,8-dihydroquinazolin-5(6H)-one]: the half-maximal inhibitory concentration (IC50) is 1000 to 10000 nM.

Consider `Cc1nc(N)nc2c1C(=O)CC(C(C)C)C2` (stereo not drawn) [Compound 1, 2-amino-7-isopropyl-4-methyl-7,8-dihydroquinazolin-5(6H)-one], for which the IC50 was over 10000 nM.

As for `Cc1nc(N)nc2c1C(=O)CC(c1ccccc1-c1ccccc1C(N)=O)C2` (stereo not drawn) [Compound 90, 2′-(2-amino-4-methyl-5-oxo-5,6,7,8-tetrahydroquinazolin-7-yl)-1,1′-biphenyl-2-carboxamide], the concentration for half-maximal inhibition (IC50) was under 1000 nM.

With `Cc1cccc(-c2ccccc2C2CC(=O)c3c(C)nc(N)nc3C2)c1` (stereo not drawn) [Compound 50, 2-amino-4-methyl-7-(3′-methyl-1,1′-biphenyl-2-yl)-7,8-dihydroquinazolin-5(6H)-one], the IC50 lay within 1000 to 10000 nM.

Consider `Cc1nc(N)nc2c1C(=O)CC(c1ccccc1-c1ccccc1Oc1ccccc1)C2` (stereo not drawn) [Compound 113, 2-amino-4-methyl-7-(2′-phenoxy-1,1′-biphenyl-2-yl)-7,8-dihydroquinazolin-5(6H)-one], for which the IC50 is under 1000 nM.

In the case of `Cc1nc(N)nc2c1C(=O)CC(c1cccnc1-c1cnccn1)C2` (stereo not drawn) [Compound 34, 2-amino-4-methyl-7-(2-pyrazin-2-ylpyridin-3-yl)-7,8-dihydroquinazolin-5(6H)-one], the half-inhibitory concentration (IC50) was 1000 to 10000 nM.

On to `Cc1nc(N)nc2c1C(=O)CC(c1ccccc1OC1CCCCC1)C2` (stereo not drawn) [Compound 17, 2-amino-7-[2-(cyclohexyloxy)phenyl]-4-methyl-7,8-dihydroquinazolin-5(6H)-one], for which the IC50 was under 1000 nM.

For `Cc1nc(N)nc2c1C(=O)CC(c1cccnc1-c1ccccn1)C2` (stereo not drawn) [Compound 33, 2-amino-7-(2,2′-bipyridin-3-yl)-4-methyl-7,8-dihydroquinazolin-5(6H)-one], the IC50 was 1000 to 10000 nM.

In the case of `Cc1nc(N)nc2c1C(=O)CC(c1ccccc1-c1cnccc1Cl)C2` (stereo not drawn) [Compound 81, 2-amino-7-[2-(4-chloropyridin-3-yl)phenyl]-4-methyl-7,8-dihydroquinazolin-5(6H)-one], the concentration for half-maximal inhibition (IC50) was under 1000 nM.

Consider `COc1cccc(Oc2ccccc2)c1C1CC(=O)c2c(C)nc(N)nc2C1` (stereo not drawn) [Compound 22, 2-amino-7-(2-methoxy-6-phenoxyphenyl)-4-methyl-7,8-dihydroquinazolin-5(6H)-one], for which the IC50 was 1000 to 10000 nM.

Take `Cc1nc(N)nc2c1C(=O)CC(c1ccccc1-c1cccc(NS(C)(=O)=O)c1)C2` (stereo not drawn) [Compound 114, N-[2′-(2-amino-4-methyl-5-oxo-5,6,7,8-tetrahydroquinazolin-7-yl)-1,1′-biphenyl-3-yl]methanesulfonamide]: the concentration for half-maximal inhibition (IC50) is 1000 to 10000 nM.

Consider `COc1ncccc1-c1cc(F)ccc1C1CC(=O)c2c(C)nc(N)nc2C1` (stereo not drawn) [Compound 99, 2-amino-7-[4-fluoro-2-(2-methoxy-pyridin-3-yl)-phenyl]-4-methyl-7,8-dihydro-6H-quinazolin-5-one], for which the IC50 was under 1000 nM.

Regarding `Cc1nc(N)nc2c1C(=O)CC(c1c(Cl)cccc1OCCN1CCN(C)CC1)C2` (stereo not drawn) [Compound 154, 2-amino-7-{2-chloro-6-[2-(4-methyl-piperazin-1-yl)-ethoxy]-phenyl}-4-methyl-7,8-dihydro-6H-quinazolin-5-one], the IC50 was over 10000 nM.

Consider `COc1cccc(C2CCCCC2)c1C1CC(=O)c2c(C)nc(N)nc2C1` (stereo not drawn) [Compound 173, 2-amino-7-(2-cyclohexyl-6-methoxyphenyl)-4-methyl-7,8-dihydroquinazolin-5(6H)-one], for which the concentration for half-maximal inhibition (IC50) was over 10000 nM.

For the compound `CC(=O)Nc1cccc(-c2ccccc2C2CC(=O)c3c(C)nc(N)nc3C2)c1` (stereo not drawn) [Compound 102, N-[2′-(2-amino-4-methyl-5-oxo-5,6,7,8-tetrahydroquinazolin-7-yl)-1,1′-biphenyl-3-yl]acetamide], the IC50 lay in the range of 1000 to 10000 nM.

On to `Cc1nc(N)nc2c1C(=O)CC(c1ccccc1Oc1cncnc1)C2` (stereo not drawn) [Compound 142, 2-amino-4-methyl-7-[2-(pyrimidin-5-yloxy)phenyl]-7,8-dihydroquinazolin-5(6H)-one], for which the half-inhibitory concentration (IC50) is under 1000 nM.

Still in this test, the particulars now being: Table II; read-out: Hsp90 IC50 Range.
For `COc1cc(Cl)c(C)cc1-n1ccnc1C1CC(=O)c2c(C)nc(N)nc2C1` (stereo not drawn) [Compound 330, 2-amino-7-[1-(4-chloro-2-methoxy-5-methyl-phenyl)-1H-imidazol-2-yl]-4-methyl-7,8-dihydro-6H-quinazolin-5-one], the half-maximal inhibitory concentration (IC50) lay in the range of 1000 to 10000 nM.

For `COc1cncc(-c2cc(F)ccc2[C@@H]2CC(=O)c3c(C)nc(N)nc3C2)n1` [Compound 226, (S)-2-amino-7-[4-fluoro-2-(6-methoxy-pyrazin-2-yl)-phenyl]-4-methyl-7,8-dihydro-6H-quinazolin-5-one], the IC50 was under 1000 nM.

On to `Cc1nc(N)nc2c1C(=O)CC(c1ccc(F)cc1OC1CCCC1)C2` (stereo not drawn) [Compound 255, 2-amino-7-(2-cyclopentyloxy-4-fluoro-phenyl)-4-methyl-7,8-dihydro-6H-quinazolin-5-one], for which the 50% inhibitory concentration (IC50) is under 1000 nM.

`Cc1nc(N)nc2c1C(=O)CC(c1ccc(F)cc1OC1CCCC1C)C2` (stereo not drawn) [Compound 268, 2-amino-7-[4-fluoro-2-(2-methyl-cyclopentyloxy)-phenyl]-4-methyl-7,8-dihydro-6H-quinazolin-5-one]: the IC50 is under 1000 nM.

Regarding `CCOc1cccc(-n2ccnc2C2CC(=O)c3c(C)nc(N)nc3C2)c1` (stereo not drawn) [Compound 191, 2-amino-7-[1-(3-ethoxy-phenyl)-1H-imidazol-2-yl]-4-methyl-7,8-dihydro-6H-quinazolin-5-one], the 50% inhibitory concentration (IC50) was over 10000 nM.

On to `Cc1nc(N)nc2c1C(=O)CC(c1nccn1-c1ccccc1F)C2` (stereo not drawn) [Compound 188, 2-amino-7-[1-(2-fluoro-phenyl)-1H-imidazol-2-yl]-4-methyl-7,8-dihydro-6H-quinazolin-5-one], for which the IC50 is under 1000 nM.

For `Cc1nc(N)nc2c1C(=O)CC(c1ccccc1S(=O)(=O)N1CCCC1)C2` (stereo not drawn) [Compound 184, 2-amino-4-methyl-7-[2-(pyrrolidine-1-sulfonyl)-phenyl]-7,8-dihydro-6H-quinazolin-5-one], the IC50 lay in the range of 1000 to 10000 nM.

On to `CCc1nc(N)nc2c1C(=O)CC(c1ccc(F)cc1-c1cccnc1F)C2` (stereo not drawn) [Compound 319, 2-amino-4-ethyl-7-[4-fluoro-2-(2-fluoro-pyridin-3-yl)-phenyl]-7,8-dihydro-6H-quinazolin-5-one], for which the half-inhibitory concentration (IC50) was 1000 to 10000 nM.

With `COc1cccc(-n2ccnc2[C@H]2CC(=O)c3c(C)nc(N)nc3C2)n1` [Compound 203, (R)-2-amino-7-[1-(6-methoxy-pyridin-2-yl)-1H-imidazol-2-yl]-4-methyl-7,8-dihydro-6H-quinazolin-5-one], the half-inhibitory concentration (IC50) fell in the range of 1000 to 10000 nM.

Consider `Cc1nc(N)nc2c1C(=O)CC(c1ccccc1SC(C)(C)C)C2` (stereo not drawn) [Compound 180, 2-amino-7-(2-tert-butylsulfanyl-phenyl)-4-methyl-7,8-dihydro-6H-quinazolin-5-one], for which the half-maximal inhibitory concentration (IC50) is under 1000 nM.

For `Nc1nc(Cc2cccc([N+](=O)[O-])c2)c2c(n1)CC(c1ccccc1)CC2=O` (stereo not drawn) [Compound 308, 2-amino-4-(3-nitro-benzyl)-7-phenyl-7,8-dihydro-6H-quinazolin-5-one], the IC50 is over 10000 nM.

Consider `COc1ccc(F)c(-c2cc(F)ccc2C2CC(=O)c3c(C)nc(N)nc3C2)c1` (stereo not drawn) [Compound 186, 2-amino-7-(5,2′-difluoro-5′-methoxy-biphenyl-2-yl)-4-methyl-7,8-dihydro-6H-quinazolin-5-one], for which the IC50 is under 1000 nM.

For the compound `Cc1nc(N)nc2c1C(=O)CC(c1ncsc1-c1cccc(F)n1)C2` (stereo not drawn) [Compound 294, 2-amino-7-[5-(6-fluoro-pyridin-2-yl)-thiazol-4-yl]-4-methyl-7,8-dihydro-6H-quinazolin-5-one], the IC50 is under 1000 nM.

Consider `CNc1cccc(-c2cc(F)ccc2C2CC(=O)c3c(C)nc(N)nc3C2)n1` (stereo not drawn) [Compound 295, 2-amino-7-[4-fluoro-2-(6-methylamino-pyridin-2-yl)-phenyl]-4-methyl-7,8-dihydro-6H-quinazolin-5-one], for which the IC50 fell in the range of 1000 to 10000 nM.

With `Nc1nc(O)c2c(n1)CC(c1ccccc1)CC2=O` (stereo not drawn) [Compound 311, 2-amino-4-hydroxy-7-phenyl-7,8-dihydro-6H-quinazolin-5-one], the IC50 is over 10000 nM.

For the compound `COc1cccc(-c2cc(Cl)ccc2C2CC(=O)c3c(C)nc(N)nc3C2)n1` (stereo not drawn) [Compound 251, 2-amino-7-[4-chloro-2-(6-methoxy-pyridin-2-yl)-phenyl]-4-methyl-7,8-dihydro-6H-quinazolin-5-one], the half-inhibitory concentration (IC50) was under 1000 nM.

On to `COc1nc(-c2cc(F)ccc2[C@@H]2CC(=O)c3c(C)nc(N)nc3C2)ncc1F` [Compound 230, (S)-2-amino-7-[4-fluoro-2-(5-fluoro-4-methoxy-pyrimidin-2-yl)-phenyl]-4-methyl-7,8-dihydro-6H-quinazolin-5-one], for which the IC50 is under 1000 nM.
